These results are taken from PMC5297980 (Clinical Pharmacology in Drug Development, 2016).

In general, AUC(0-inf) refers to the area under the concentration-time curve extrapolated to infinity. As a reminder, the AUC(0-t) is the area under the concentration-time curve up to a stated or last time point. Low values mean less exposure, high ones more exposure. For orientation: half-life means how long it takes for the measured level to halve. In general, IC50 refers to the concentration that gives 50% inhibition. The Ki is the equilibrium dissociation constant of an inhibitor or competing ligand from its target. One may read the AUC as concentration integrated over time. Higher therefore signals high exposure.

For series [1] the following is noted: OATP1B1 substrate; cited from earlier work.
Series [2] can be described thus: Phase 1 methotrexate-isavuconazole interaction study, plasma PK. It counts as in vivo, human.
A short description of series [3]: Phase 1 metformin-isavuconazole interaction study, plasma PK.
Series [4] in a line: Phase 1 digoxin-isavuconazole interaction study, plasma PK. It counts as in vivo, human.
The conditions of series [5]: cited from earlier work.
In another series the test system is P‐gp. To be noted: in vitro studies; cited from earlier work.
For a further series, the system named is OAT3. To be noted: HEK293 cells, [^3H]estrone sulfate substrate; ref data on file; cited from earlier work.
The next series concerns OCT2. Conditions: HEK293 cells, [^14C]metformin substrate; ref data on file; cited from earlier work.
The test system of series [6] is multidrug and toxin extrusion 1 (MATE1). Conditions: HEK293 cells, [^14C]metformin substrate; ref data on file; cited from earlier work.
Series [7] is described as follows: Phase 1 atorvastatin-isavuconazole interaction study, plasma PK. To be noted: human, oral, 200 mg.
For series [8], the system named is organic anion‐transporting polypeptide 1B1 (OATP1B1). To be noted: HEK293 cells, [^3H]estradiol 17β‐D‐glucuronide substrate; ref data on file; cited from earlier work.
In series [9] the test system is organic anion transporter 1 (OAT1). Conditions: HEK293 cells, [^3H]‐p‐aminohippuric acid substrate; ref data on file; cited from earlier work.
Series [10] deals with organic cation transporter 1 (OCT1). Conditions: HEK293 cells, [^14C]tetraethylammonium bromide; ref data on file; cited from earlier work.
[11] abbreviates: methotrexate + isavuconazole (day 8), mean (SD).
Setting [12] is: methotrexate + isavuconazole vs methotrexate alone.
Setting [13] is: methotrexate alone (day 1), mean (SD).

Regarding `CCOc1cc(CC(=O)N[C@@H](CC(C)C)c2ccccc2N2CCCCC2)ccc1C(=O)O` [repaglinide], the “PK in the presence and absence of isavuconazole” value in [1] was “unchanged”.

Turning to `CN(Cc1cnc2nc(N)nc(N)c2n1)c1ccc(C(=O)N[C@@H](CCC(=O)O)C(=O)O)cc1` [Methotrexate, methotrexate], in [2] (human, plasma, oral, 7.5 mg), the Cmax was 156 ng/mL and the Tmax turned out to be 1 h. Further, the AUC(0-inf) in [2] (human, plasma, po, 7.5 mg) was 620 ng·h/mL. For the same molecule, in series [2] (vs methotrexate alone), the “Mean AUClast lower when coadministered with isavuconazole” value is reported as 3%, the “Mean AUC∞ lower when coadministered with isavuconazole” value was 3% and the “Mean Cmax lower when coadministered with isavuconazole” value worked out at 11%.

Regarding `CN(Cc1nc2c(N)nc(N)nc2[nH]c1=O)c1ccc(C(=O)N[C@@H](CCC(=O)O)C(=O)O)cc1` [7‐Hydroxymethotrexate, 7‐hydroxymethotrexate], the “AUC∞” value in series [2] (methotrexate 7.5 mg single oral dose alone (day 1), mean (SD)) is 635.8 (309.3) h·ng/mL. For the same molecule, in series [2] (setting [11]), the AUClast was 683.2 (272.5) h·ng/mL, the Cmax was 36.7 (14.0) ng/mL and the t1/2 is recorded as 13.0 (2.3) h. In addition, the Tmax in [2] (methotrexate + isavuconazole (day 8), median (range)) is recorded as 6.0 (3.5‐10.0) h. Moreover, in series [2] (setting [12]), the “AUClast geometric least‐squares mean ratio (90% confidence interval)” value is 124 (114, 135) %; the “AUC∞ geometric least‐squares mean ratio (90% confidence interval)” value is on record as 129 (119, 141) %; the “Cmax geometric least‐squares mean ratio (90% confidence interval)” value is 115 (104, 127) %. For the same molecule, in series [2] (setting [13]), the AUClast is listed as 554.6 (242.6) h·ng/mL, the Cmax is on record as 32.1 (13.4) ng/mL and the t1/2 is listed as 11.9 (2.9) h. The Tmax in series [2] (methotrexate alone (day 1), median (range)) is on record as 6.0 (5.0‐10.0) h. Also, in series [2] (vs methotrexate alone), the “Mean AUClast higher during concomitant administration with isavuconazole” value is 24%, the “Mean AUC∞ higher during concomitant administration with isavuconazole” value is listed as 29% and the “Mean Cmax higher during concomitant administration with isavuconazole” value amounted to 15%.

As to `CN(C)C(=N)N=C(N)N` [Metformin, metformin], the area under the curve AUC(0-t) in [3] (human, plasma, oral, 850 mg) came to 9120 ng·h/mL. In series [3] (metformin + isavuconazole (day 8), median (range)), the Tmax is on record as 2.0 (1.0‐4.0) h. Further, the Cmax in series [3] (metformin alone (day 1), mean (SD)) is 1467 (449) ng/mL. The Tmax in series [3] (metformin alone (day 1), median (range)) was 2.5 (1.0‐6.0) h. Also, in series [3] (metformin hydrochloride 850 mg single oral dose alone (day 1), mean (SD)), the “AUC∞” value was 9303 (2543) h·ng/mL. Further, in series [3] (metformin study), the “Mean AUClast higher in the presence vs absence of isavuconazole” value is given as 50%, the “Mean AUC∞ higher in the presence vs absence of isavuconazole” value is reported as 52% and the “Mean Cmax higher in the presence vs absence of isavuconazole” value is given as 23%.

`C[C@H]1O[C@@H](O[C@H]2[C@@H](O)C[C@H](O[C@H]3[C@@H](O)C[C@H](O[C@H]4CC[C@@]5(C)[C@H](CC[C@@H]6[C@@H]5C[C@@H](O)[C@]5(C)[C@@H](C7=CC(=O)OC7)CC[C@]65O)C4)O[C@@H]3C)O[C@@H]2C)C[C@H](O)[C@@H]1O` [Digoxin, digoxin]: in series [4] (digoxin study), the “Mean AUClast higher in the presence vs absence of isavuconazole” value is listed as 24%, the “Mean AUC∞ higher in the presence vs absence of isavuconazole” value came out at 25% and the “Mean Cmax higher in the presence vs absence of isavuconazole” value is recorded as 33%. In [4] (human, plasma, oral, 0.5 mg), the AUC(0-t) came to 32.9 ng·h/mL, the Cmax turned out to be 1.6 ng/mL and the half-life is 40.9 h. The same molecule displayed an AUC(0-inf) in series [4] (human, plasma, po, 0.5 mg) of 34.4 ng·h/mL.

As to `CC[C@@H]([C@H](C)O)n1ncn(-c2ccc(N3CCN(c4ccc(OC[C@@H]5CO[C@@](Cn6cncn6)(c6ccc(F)cc6F)C5)cc4)CC3)cc2)c1=O` [Posaconazole], the “effect on plasma concentrations of digoxin” value in series [5] (ref NOXAFIL package insert) was “increase plasma concentrations of digoxin”.

With `OC(Cn1cncn1)(Cn1cncn1)c1ccc(F)cc1F` [fluconazole], the “inhibition of P‐gp‐mediated active transport” value with P‐gp is “not an inhibitor”.

Take `CCC(C)n1ncn(-c2ccc(N3CCN(c4ccc(OCC5COC(Cn6cncn6)(c6ccc(Cl)cc6Cl)O5)cc4)CC3)cc2)c1=O` (stereo not drawn) [itraconazole]: in [5], the “increase in plasma digoxin concentrations during coadministration” value is on record as “approximately 80%”.

As to `C[C@@H](c1nc(-c2ccc(C#N)cc2)cs1)[C@](O)(Cn1cncn1)c1cc(F)ccc1F` [Isavuconazole, isavuconazole], the IC50 was over 10 µM in the series with OAT3; 1.97 µM with OCT2; 6.31 µM in [6]; 11.2 µM in [8]; over 10 µM in series [9]; 3.74 µM in [10]. Besides, the figures for the Ki (with OCT2; in series [10]) were 0.69 µM and 1.74 µM, respectively. The exposure (AUC) in series [7] worked out at 77300 ng·h/mL; in series [2] (human, plasma, oral, 200 mg), 99400 ng·h/mL; in series [4] (human, plasma, oral, 200 mg), 102000 ng·h/mL; in series [3] (human, plasma, oral, 200 mg), 106000 ng·h/mL. Besides, the Cmax in series [7] was 5300 ng/mL; in series [2] (human, plasma, oral, 200 mg) it was 6200 ng/mL; in [4] (human, plasma, oral, 200 mg) it was 6100 ng/mL; in [3] (human, plasma, oral, 200 mg), 7100 ng/mL. For the same molecule, the Tmax in series [7] came to 3 h; in series [2] (human, plasma, oral, 200 mg), 3 h; in series [4] (human, plasma, oral, 200 mg) it was 3 h; in series [3] (human, plasma, oral, 200 mg), 3 h.
